US9802990B2, “Functional peptides for obesity disorders” (DANONE, S.A., priority 2013, dated 2017)
Read-outs that look alike come from different tables or passages of the source. Where no end group is shown, it is not given here.

Experiments:
[1] = tested on: C. elegans wild type strain N2; assay: C. elegans body fat reduction, Nile Red staining; assay type: in vivo, Caenorhabditis elegans; details: for % Fluorescence Reduction: nematodes fed NG with peptides alone or in Savia soy fermented product, alone or mixed, 1 μg/mL final concentration, Nile Red; for % Fluorescence Reduction C. elegans: synthesized peptides at 1 μg/mL of final concentration
Description: The ability to reduce body fat content in the nematode C. elegans was analyzed in a group of 5 peptide extracts previously obtained from glycinin (see Table 4). These samples were selected by their high effect on PL and PLA2 in vitro inhibition. Specifically, 5 peptide extracts were selected from the PLA2 inhibition assay (M20G, M5G, M31G, M27G and M29G). Body fat content was analyzed in the C. elegans wild type strain N2 by Red Nile dying of living nematodes. Experiments were carried out with age-synchronized populations, starting from egg-stage to young adult stage (3-day adults). During the experiments, worms were cultured in the NGM agar plates as control condition, NGM with the corresponding peptide extracts (100 μL/plate) and NGM with 6 μg/mL of Orlistat as positive control. Nile Red was added on top of the NG plates already seeded with Escherichia coli OP50 strain to a final concentration of 0.05 μg/ml. After incubation at 20° C., young adult worms (60 worms per condition) were taken to measure the in vivo fluorescence in a VersaFluor™ Fluorometer System. Fluorescence obtained in treated worms was calculated from fluorescence of worms fed in control conditions (reference sample). Experiments were carried out by duplicate.
From these purified fractions, a total of 11 peptides were selected to be synthesized and evaluated in vivo in the obesity model of C. elegans (Table 9). All peptides were evaluated at 1 μg/mL of final concentration.
We selected 5 peptides obtained from hydrolysis of glycinin with strain 6 (P8a, P6a, P14c, P16f, P14b) The peptides from glycinin were added to a soy fermented product (Savia® from Danone) both alone or mixed at final concentration of 1 μg/mL. Nematodes were fed with these products and then total lipids were quantified by Nile Red staining.

PL (pancreatic lipase) = biological target: T1, PL (pancreatic lipase) (Sus scrofa, UniProt P00591); assay: PL inhibition assay with 4-methyl umbelliferyl oleate (4MUO), fluorescence; assay type: biochemical; details: synthesized peptides
T1 sequence (P00591 1-450): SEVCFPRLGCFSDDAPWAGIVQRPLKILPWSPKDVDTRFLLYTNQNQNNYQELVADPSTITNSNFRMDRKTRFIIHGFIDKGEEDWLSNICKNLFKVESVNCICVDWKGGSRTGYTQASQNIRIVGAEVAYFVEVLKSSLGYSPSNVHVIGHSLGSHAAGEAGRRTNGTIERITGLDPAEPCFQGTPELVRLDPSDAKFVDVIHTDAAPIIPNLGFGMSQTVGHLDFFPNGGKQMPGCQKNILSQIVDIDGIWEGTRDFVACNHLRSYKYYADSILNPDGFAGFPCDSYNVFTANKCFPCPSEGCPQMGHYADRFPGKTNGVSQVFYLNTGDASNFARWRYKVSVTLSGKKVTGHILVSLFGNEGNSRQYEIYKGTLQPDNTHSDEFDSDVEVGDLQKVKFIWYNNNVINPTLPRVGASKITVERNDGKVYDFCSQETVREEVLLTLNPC
Description: Inhibition of PL was determined using 4-methyl umbelliferyl oleate (4MUO) as substrate as described by Sugiyama et al. (Oligomeric procyanidins in apple polyphenol are main active components for inhibition of pancreatic lipase and triglyceride absorption. J Agric Food Chem (2007); 55: 4604-4609) with some modifications. Aliquots of 25 μl of each peptide extract were incubated with 25 μl of PL solution (1 mg/ml) and preincubated for 10 minutes at 26° C. with stirring of 500 rpm. Reaction was initiated by adding 50 μl of 4MUO (0.1 mM) dissolved in Dulbecco's buffer. After incubation at 26° C. for 20 minutes with constant stirring (500 rpm) the reaction was stopped by adding 100 μl of 0.1 M sodium citrate buffer (pH 4.2). The amount of 4-methyl umbelliferone released by the enzyme was determined by fluorescence. Peptide extracts were used as inhibitors in the enzymatic assay but had to be diluted 1/20 or 1/50 because of the interference between the fluorescence and the buffer containing the peptides.

[2] = biological target: PLA2 (pancreatic phospholipase A2) (Homo sapiens, UniProt P04054); assay: PLA2 inhibition assay by HPLC with DOPC as substrate; assay type: biochemical
Description: Inhibition of PLA2 enzyme was determined by High Performance Liquid Chromatography (HPLC) using 1,2-dioleoyl-sn-glycero-3-phosphocholine (DOPC) as substrate as described by Singh et al. (A rapid isocratic high-performance liquid chromatography method for determination of cholesterol and 1,2-dioleoyl-sn-glycero-3-phosphocholine. Journal of Chromatography (2005); 1073:347-353). Waters 2695 HPLC with Waters 2996 Photodiode detector Array and a C8 column Hypersil BDS (250×4.6 mm, […]) were used carrying out an eluent isocratic method formed by a mixture of ammonium phosphate buffer 50 mM pH 2.7:methanol (15:85, v/v).

[3] = In vitro enzymatic digestion model of the digestive tract (pepsin, pancreatin, bile), HPLC; assay type: in vitro ADME
From the text: An in vitro enzymatic digestion model of an in vivo digestive tract was developed for mimicking the physiological conditions to check and certify that each selected peptide was differently degraded throughout the gastro-intestinal tract by the digestive process. Pepsin, pancreatin and bile concentrations were optimized using a published experimental design (Granado-Lorencio et al (2007). J. Agri. Food. Chem., 55, 6387-6394).

soy glycinin = assay: Protease activity of LAB strains (supernatant and cells); assay type: biochemical; details: for Protease activity cell: cells; for Protease activity Supernatant: culture supernatant, proteases above 10 KDa concentrated
From the text: For the purpose of selecting the most efficient lactic acid bacteria having protease activity against glycinin, different strains of the genera Lactobacillus and Streptococcus were subject to the following hydrolysis assay.
The substrate selected to carry out the process of hydrolysis was soy glycinin. Glycinin is the soy major protein extracted from soy flour after treatment with mercaptoethanol followed by two centrifugation steps as described in Thanh V. H. et al. (Major proteins of soybean seeds: a straightforward fractionation and their characterization. 1976. J Agric Food Chem 24: 1117-1121). Among the enzymatic sources used to degrade glycinin, ten strains were tested: 6 strains from Streptococcus genera (strains 2, 3, 4, 5, 6, 7) and 4 strains from Lactobacillus genera (strains 8, 9, 10 and 11). All these strains were grown in optimal medium (MRS for Lactobacillus strains and BHI for Streptococcus strains) during 17 h at 37° C. and the proteases with a molecular weight above 10 KDa both in supernatant and cells were concentrated to be used as enzymatic sources in glycinin hydrolysis assays. On one hand, proteases from the supernatant were obtained after centrifugation for 15 min at 4000 rpm. Then the supernatant was ultrafiltrated by 10 KDa and the top was resuspended in 2 ml with 50 mM citrate phosphate buffer pH 7. On the other hand, cells obtained from the different cultures were washed with saline solution for 15 min at 4000 rpm and resuspended in 50 mM citrate phosphate buffer pH 7 to evaluate the protease activity in cells and supernatant (Table 1).

Sequence of PLA2 (pancreatic phospholipase A2) (P04054 23-148, species assumed): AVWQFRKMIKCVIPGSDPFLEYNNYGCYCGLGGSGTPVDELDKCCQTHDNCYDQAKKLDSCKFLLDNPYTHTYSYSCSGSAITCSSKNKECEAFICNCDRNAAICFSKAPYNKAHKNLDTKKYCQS

CCCCCCCCCCC[C@@H](C[C@@H]1OC(=O)[C@H]1CCCCCC)OC(=O)[C@H](CC(C)C)NC=O [Orlistat, reference compound]
% Fluorescence Reduction [1]: 29.5 ± 0.1%

DEDEDEDEDKPRPSRP (DEDEDEDEDKPRPSRP; listed as Glycine soja) [Peptide P16e]
% Fluorescence Reduction C. elegans [1]: 21.86 ± 4%

DEDEDEDKPRPSRP (DEDEDEDKPRPSRP; listed as Glycine soja) [Peptide P14d]
% Fluorescence Reduction C. elegans [1]: 6.26 ± 7.6%

EEDQPRPDHPPQRP [Peptide P14c, EEDQPRPDHPPQRP]
IC50 (PL (pancreatic lipase)): 28.9 µM | Percentage of PLA2 inhibition ([2]; peptide 0.035 mg/ml): 20.4 ± 4.4% | Percentage of PLA2 inhibition ([2]; peptide 0.35 mg/ml): 21.1 ± 4.3% | Percentage of PLA2 inhibition ([2]; peptide 2 mg/ml): 25.2 ± 4.3% | Percentage of PLA2 inhibition ([2]; peptide 3.5 mg/ml): 26.1 ± 4.1% | % Fluorescence Reduction [1]: 33.7 ± 5.5% | % Fluorescence Reduction C. elegans [1]: 39.37 ± 7.08% | metabolised at 0.5 h ([3]; Gastric phase 30 min., read-out: Degradation (%)): 4.2% | metabolised at 2 h ([3]; Gastric phase 120 min., read-out: Degradation (%)): 4.6% | degradation in the in vitro digestion model (in words) ([3]; HPLC, completely degraded = at the beginning of the intestinal phase, resistant ones finally degraded at the end): completely degraded | metabolised at 0.25 h ([3]; Intestinal phase 15 min., read-out: Degradation (%)): 92.9% | metabolised at 0.5 h ([3]; Intestinal phase 30 min., read-out: Degradation (%)): 93.2% | metabolised at 1 h ([3]; Intestinal phase 60 min., read-out: Degradation (%)): 95% | metabolised at 2 h ([3]; Intestinal phase 120 min., read-out: Degradation (%)): 95.5% | metabolised at 5 min ([3]; Oral phase 5 min., read-out: Degradation (%)): 5.3%

EEEGGSVLSG [Peptide P10b, EEEGGSVLSG]
IC50 (PL (pancreatic lipase)): 36.3 µM | Percentage of PLA2 inhibition ([2]; peptide 0.035 mg/ml): 7.8 ± 5.6% | Percentage of PLA2 inhibition ([2]; peptide 0.35 mg/ml): 13.9 ± 3.3% | Percentage of PLA2 inhibition ([2]; peptide 2 mg/ml): 26.1 ± 5.9% | Percentage of PLA2 inhibition ([2]; peptide 3.5 mg/ml): 26.9 ± 2.5% | % Fluorescence Reduction C. elegans [1]: 33.48 ± 6.1%

GKREQDEDEDEDEDKPRPSRP (GKREQDEDEDEDEDKPRPSRP; listed as Glycine soja) [Peptide P21b]
% Fluorescence Reduction C. elegans [1]: 24.91 ± 7.1%

HQQEEENEGGSILSG (HQQEEENEGGSILSG; listed as Glycine soja) [Peptide P15a]
% Fluorescence Reduction C. elegans [1]: 22.82 ± 6.1%

Lactobacillus delbrueckii lactis CNCM I-4280 [Strain 8]
Protease activity cell (soy glycinin): 0.009 U.I./ml | Protease activity Supernatant (soy glycinin): 0.028 U.I./ml

Lactobacillus helveticus CNCM I-4279 [Strain 9]
Protease activity cell (soy glycinin): 0.012 U.I./ml | Protease activity Supernatant (soy glycinin): 0.010 U.I./ml

Lactobacillus paracasei paracasei CNCM I-1518 [Strain 11]
Protease activity cell (soy glycinin): 0.006 U.I./ml | Protease activity Supernatant (soy glycinin): 0.029 U.I./ml
